Experimental findings from patent publication US20220096516A1, “OLIGONUCLEOTIDE MOLECULE AND APPLICATION THEREOF IN TUMOR THERAPY” (Ractigen Therapeutics, priority 2019, published 2022) are described below.

d = 2'-deoxy (DNA); r = 2'-OH (RNA)

Common to all, as to type: cell-based, human
Data set [1] concerns lung cancer cell line A549. In words: Cell viability by CCK-8 method, A549. Conditions: A549, 10 nM, 72 h, FIG. 7B. The method, then: (§1) 8 LHPP promoter-targeting saRNAs were individually transfected into cancer cells at 10 nM for 72 h. In FIG. 7A, the expression level of LHPP mRNA was analyzed by RT-qPCR. In FIG. 7B, cell viability in the saRNA treatment group was evaluated by the CCK-8 method and recorded as a percentage relative to the viability of cells in a control (Mock) treatment group.
(§2) The cell viability was detected by the following CCK-8 method: the cCells were plated into a 96-well plate at 3-5×10^3 cells/well, cultured overnight, and transfected with the oligonucleotide duplexes. After 72 hour of transfection, 10 uL of CCK-8 solution (Dojindo Molecular Technologies) was added into each well. After 1 hour of incubation at 37° C., a microplate reader was used to measure absorbances at 450 nm.
(§3) In order to further evaluate the effect of LHPP saRNAs in inducing the mRNA expression of the LHPP gene and inhibiting the proliferation of cancer cells, eight screened saRNAs (RAG7-132, RAG7-133, RAG7-139, RAG7-177, RAG7-178, RAG7-694, RAG7-707 and RAG7-892) each were transfected into the liver cancer cell lines Huh7 (Medical Cell Resource Center, Tohoku University, Japan), HepG2 (ATCC), Hep3B (ATCC), Li-7 (Medical Cell Resource Center, Tohoku University, Japan) and SK-HEP-1 (ATCC), a lung cancer cell line A549 (ATCC), a bladder cancer cell line T24 (ATCC), a prostatic cancer cell line PC3 (ATCC), and a glioma cell line U87MG (ATCC). The mRNA expression and cell viability of the transfected cells were measured.
On the technique in general: Tetrazolium assays rely on reduction of a dye to a coloured formazan, in cell work by metabolically active cells.

For data set [2], the system named is bladder cancer cell line T24. In words: Cell viability by CCK-8 method, T24. The conditions noted are these: T24, 10 nM, 72 h, FIG. 7B. On the procedure:
as §1, §2, §3

For data set [3], the system named is LHPP gene. In words: LHPP mRNA expression by RT-qPCR in cancer cell lines. The conditions noted are these: 72 h, FIG. 7A. The method, then:
8 LHPP promoter-targeting saRNAs were individually transfected into liver cancer cells at 10 nM for 72 h. In FIG. 6A, the expression level of LHPP mRNA was analyzed by RT-qPCR. In FIG. 6B, cell viability in the saRNA treatment group was evaluated by the CCK-8 method and recorded as a percentage relative to the viability of cells in a control (Mock) treatment group.
as §1, §3

The subject of a further data set is glioma cell line U87MG. The data set can be described thus: Cell viability by CCK-8 method, U87MG. Conditions: 10 nM, 72 h, FIG. 7B. The method, then:
as §1, §2, §3

The subject of data set [4] is LHPP gene. In words: High-throughput screening of saRNAs targeting LHPP promoter: LHPP mRNA by one-step RT-qPCR in Huh7 cells. The conditions noted are these: 10 nM saRNA, 72 hours, relative to control (Mock). In a few lines:
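LHPP transcript level relative to mock, normalised to the geometric mean of the HPRT1 and TBP reference genes, measured by one-step RT-qPCR on crude lysates. Huh7 cells had been RNAiMax-transfected with each saRNA at 10 nM for 72 h.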

In data set [5] the test system is prostatic cancer cell line PC3. The data set can be described thus: Cell viability by CCK-8 method, PC3. The conditions noted are these: PC3, 10 nM, 72 h, FIG. 7B. The method, then:
as §1, §2, §3

On to “RAG7-177: saRNA duplex; sense AUUUGCCUUUGACCUUUCUTT (SEQ ID NO: 6), antisense AGAAAGGUCAAAGGCAAAUTT (SEQ ID NO: 170) (sugars from the 5' end r19 d2, backbone not given here)”, for which the “cell proliferation (cell viability, CCK-8)” value (in data set [1]; in data set [2]; in the data set with glioma cell line U87MG) was “inhibited cell proliferation” each time. For the same substance, the “expression of LHPP gene (mRNA)” value in the data set with LHPP gene [3] (A549, 10 nM) is “induced the expression of LHPP gene to different degrees”; with LHPP gene [3] (T24, 10 nM), “induced the expression of LHPP gene to different degrees”; with LHPP gene [3] (U87MG, 10 nM), “induced the expression of LHPP gene to different degrees”. Also, the “Fold of changes in relative LHPP mRNA expression level” value in the data set on LHPP gene [4] is recorded as 1.74 fold. For the same substance, the “Fold of changes in relative LHPP mRNA expression level (log2)” value in the data set with LHPP gene [4] was 0.80 log2.

For the substance “RAG7-178: saRNA duplex; sense AAUUUGCCUUUGACCUUUCTT (SEQ ID NO: 5), antisense GAAAGGUCAAAGGCAAAUUTT (SEQ ID NO: 169) (sugars from the 5' end r19 d2, backbone not given here)”, the “cell proliferation (cell viability, CCK-8)” value (in data set [1]; with glioma cell line U87MG; in data set [5]) was “inhibited cell proliferation” throughout. In addition, the “expression of LHPP gene (mRNA)” value was “induced the expression of LHPP gene to different degrees” in the data set with LHPP gene [3] (A549, 10 nM); “induced the expression of LHPP gene to different degrees” in the data set on LHPP gene [3] (PC3, 10 nM); “induced the expression of LHPP gene to different degrees” with LHPP gene [3] (U87MG, 10 nM). Moreover, the “Fold of changes in relative LHPP mRNA expression level” value with LHPP gene [4] is reported as 1.76 fold. Also, the “Fold of changes in relative LHPP mRNA expression level (log2)” value in the data set on LHPP gene [4] amounted to 0.82 log2.

Consider “RAG7-898: saRNA duplex; sense AAGCUAUGUUGGACCAGAATT (SEQ ID NO: 59), antisense UUCUGGUCCAACAUAGCUUTT (SEQ ID NO: 223) (sugars from the 5' end r19 d2, backbone not given here)”, for which, in the data set on LHPP gene [4], the “Fold of changes in relative LHPP mRNA expression level” value stood at 1.34 fold and the “Fold of changes in relative LHPP mRNA expression level (log2)” value is 0.43 log2.

As to “RAG7-899: saRNA duplex; sense AAAGCUAUGUUGGACCAGATT (SEQ ID NO: 84), antisense UCUGGUCCAACAUAGCUUUTT (SEQ ID NO: 248) (sugars from the 5' end r19 d2, backbone not given here)”, in the data set on LHPP gene [4], the “Fold of changes in relative LHPP mRNA expression level” value was 1.26 fold and the “Fold of changes in relative LHPP mRNA expression level (log2)” value was 0.33 log2.

Consider “RAG7-902: saRNA duplex; sense CUCAAAGCUAUGUUGGACCTT (SEQ ID NO: 50), antisense GGUCCAACAUAGCUUUGAGTT (SEQ ID NO: 214) (sugars from the 5' end r19 d2, backbone not given here)”, for which, in the data set with LHPP gene [4], the “Fold of changes in relative LHPP mRNA expression level” value is given as 1.38 fold and the “Fold of changes in relative LHPP mRNA expression level (log2)” value was 0.46 log2.

Consider “RAG7-905: saRNA duplex; sense AAGCUCAAAGCUAUGUUGGTT (SEQ ID NO: 92), antisense CCAACAUAGCUUUGAGCUUTT (SEQ ID NO: 256) (sugars from the 5' end r19 d2, backbone not given here)”, for which, in the data set on LHPP gene [4], the “Fold of changes in relative LHPP mRNA expression level” value is 1.24 fold and the “Fold of changes in relative LHPP mRNA expression level (log2)” value amounted to 0.31 log2.

Turning to “RAG7-907: saRNA duplex; sense GAAAGCUCAAAGCUAUGUUTT (SEQ ID NO: 22), antisense AACAUAGCUUUGAGCUUUCTT (SEQ ID NO: 186) (sugars from the 5' end r19 d2, backbone not given here)”, in the data set with LHPP gene [4], the “Fold of changes in relative LHPP mRNA expression level” value amounted to 1.55 fold and the “Fold of changes in relative LHPP mRNA expression level (log2)” value turned out to be 0.63 log2.

On to “RAG7-908: saRNA duplex; sense UGAAAGCUCAAAGCUAUGUTT (SEQ ID NO: 31), antisense ACAUAGCUUUGAGCUUUCATT (SEQ ID NO: 195) (sugars from the 5' end r19 d2, backbone not given here)”, for which, in the data set on LHPP gene [4], the “Fold of changes in relative LHPP mRNA expression level” value worked out at 1.49 fold and the “Fold of changes in relative LHPP mRNA expression level (log2)” value stood at 0.57 log2.

“RAG7-909: saRNA duplex; sense UUGAAAGCUCAAAGCUAUGTT (SEQ ID NO: 23), antisense CAUAGCUUUGAGCUUUCAATT (SEQ ID NO: 187) (sugars from the 5' end r19 d2, backbone not given here)”: in the data set on LHPP gene [4], the “Fold of changes in relative LHPP mRNA expression level” value is 1.53 fold and the “Fold of changes in relative LHPP mRNA expression level (log2)” value is 0.61 log2.

As to “RAG7-911: saRNA duplex; sense CUUUGAAAGCUCAAAGCUATT (SEQ ID NO: 160), antisense UAGCUUUGAGCUUUCAAAGTT (SEQ ID NO: 324) (sugars from the 5' end r19 d2, backbone not given here)”, in the data set with LHPP gene [4], the “Fold of changes in relative LHPP mRNA expression level” value was 1.11 fold and the “Fold of changes in relative LHPP mRNA expression level (log2)” value was found to be 0.15 log2.

“RAG7-914: saRNA duplex; sense CUUCUUUGAAAGCUCAAAGTT (SEQ ID NO: 143), antisense CUUUGAGCUUUCAAAGAAGTT (SEQ ID NO: 307) (sugars from the 5' end r19 d2, backbone not given here)”: in the data set with LHPP gene [4], the “Fold of changes in relative LHPP mRNA expression level” value is 1.14 fold and the “Fold of changes in relative LHPP mRNA expression level (log2)” value was 0.19 log2.

In the case of “RAG7-916: saRNA duplex; sense CUCUUCUUUGAAAGCUCAATT (SEQ ID NO: 33), antisense UUGAGCUUUCAAAGAAGAGTT (SEQ ID NO: 197) (sugars from the 5' end r19 d2, backbone not given here)”, in the data set with LHPP gene [4], the “Fold of changes in relative LHPP mRNA expression level” value turned out to be 1.48 fold and the “Fold of changes in relative LHPP mRNA expression level (log2)” value is listed as 0.56 log2.

Consider “RAG7-917: saRNA duplex; sense UCUCUUCUUUGAAAGCUCATT (SEQ ID NO: 64), antisense UGAGCUUUCAAAGAAGAGATT (SEQ ID NO: 228) (sugars from the 5' end r19 d2, backbone not given here)”, for which, in the data set on LHPP gene [4], the “Fold of changes in relative LHPP mRNA expression level” value was determined as 1.32 fold and the “Fold of changes in relative LHPP mRNA expression level (log2)” value was found to be 0.40 log2.
